These results are taken from US7148028B2, “Methods and means relating to atherosclerosis” (priority 2001, dated 2006).

“And” between values parts separate entries of the source, which are not always exact repeats. Equal entries are not always repeated. “Also recorded” adds a separate entry of the source. Structures can show the parent of a compound that is named as a salt. Where two headings read alike, the source gives them in different places.

For test [1], the system named is anti-Chlamydia abzymes. It is filed as biochemical, human. On the set-up: key to In-vitro Inhibition: + = inhibition; − = no inhibition.
Test [2] concerns anti-Chlamydia abzymes. It is filed as in vivo, human. Particulars: for abzyme activity of individuals, + aspirin: self-reported aspirin takers, one value per individual.
A short description of test [3]: Clinical condition, modified Rose-Blackburn Questionnaire. It is filed as in vivo, human. From the text: The progression of the clinical condition of the patients was monitored by the use of the modified Bruce Protocol for treadmill exercise/stress ECG testing and on the Rose-Blackburn Questionnaire (Cardiovascular Survey Methods. WHO, Geneva, 1968)
The test system of test [4] is Chlamydia pneumoniae or Chlamydia Psittaci. It is filed as biochemical.
A further test has as its system lesion IgG. Nature of the test: LDL peroxidation by lesion IgG (MDA). Type of test: biochemical, human.
Where [5] appears, read: 10 μM of each agent, control 24.3.

Take `CC(=O)Oc1ccccc1C(=O)O` [Aspirin, acetylsalicylic acid]: the “Result (inhibition of anti-Chlamydia abzymes)” value in the test with anti-Chlamydia abzymes [1] (10 μM of each agent) is recorded as “Positive”. Moreover, the “Lipid oxidising activity of anti-Chlamydia abzymes” value (“Lipid oxidising activity” below) in the test on anti-Chlamydia abzymes [1] (setting [5]) amounted to 6.2 μM MDA/ml. For the same compound, the “abzyme activity after a week” value in the test on anti-Chlamydia abzymes [2] (250 mg aspirin daily, the other two CHD patients) is reported as “undetectably low level”. The “abzyme activity, aspirin alone” value in the test with anti-Chlamydia abzymes [2] (Therapy Group D, 250 mg daily) was “reduction in the abzyme activity but to a lesser degree than observed with the combination”. The “individuals positive for abzymes / individuals, + aspirin” value in the test on anti-Chlamydia abzymes [2] (stable angina class I) is 1/6; in the test with anti-Chlamydia abzymes [2] (stable angina class II), 4/15; with anti-Chlamydia abzymes [2] (stable angina class III), 6/10; in the test on anti-Chlamydia abzymes [2] (unstable angina IV), 6/7. Besides, the “percentage positive for abzymes, + aspirin” value is listed as 17% with anti-Chlamydia abzymes [2] (stable angina class I), 27% with anti-Chlamydia abzymes [2] (stable angina class II), 60% in the test with anti-Chlamydia abzymes [2] (stable angina class III) and 86% in the test with anti-Chlamydia abzymes [2] (unstable angina IV). Further, the “abzyme activity, group mean, + aspirin” value in the test with anti-Chlamydia abzymes [2] (stable angina class I, n = 6, without aspirin 30.0) is given as 10.0; in the test with anti-Chlamydia abzymes [2] (stable angina class II, n = 15, without aspirin 32.2) it was 9.2. Further, the “abzyme activity of individuals, + aspirin” value in the test with anti-Chlamydia abzymes [2] (stable angina class I) is 5 and 45 and 0 (3×) and 10; in the test with anti-Chlamydia abzymes [2] (stable angina class II) it was 5 (4×) and 10 (2×) and 0 (4×) and 25 and 3.3 and 30; with anti-Chlamydia abzymes [2] (stable angina class III), 0 (3×) and 45 and 5 and 35 and 15 and 30 and 20; in the test with anti-Chlamydia abzymes [2] (unstable angina IV), 130 and 70 and 0 and 37 and 90 and 100 and 180.

In the case of `CC[C@H]1OC(=O)[C@H](C)[C@@H](O[C@H]2C[C@@](C)(OC)[C@@H](O)[C@H](C)O2)[C@H](C)[C@@H](O[C@@H]2O[C@H](C)C[C@H](N(C)C)[C@H]2O)[C@](C)(O)C[C@@H](C)CN(C)[C@H](C)[C@@H](O)[C@]1(C)O` [Azithromycin], the “in vitro inhibition of abzyme activity” value in the test with anti-Chlamydia abzymes [1] is “strong in vitro inhibitor of abzyme activity”. Besides, the “Lipid oxidising activity” value with anti-Chlamydia abzymes [1] (in DMSO, 5 μM, control 61, DMSO effect deducted) was determined as 0 μM MDA/ml. Further, in the test on anti-Chlamydia abzymes [2] (Example 8, stable angina patients), the “Abzyme activity after 15 days / two weeks” value was “reduced abzyme activity”. Besides, in the test with anti-Chlamydia abzymes [2] (Therapy Group A, before 47.5), the “Anti-Chlamydia abzyme activity, 45 days, group mean” value turned out to be 7.4 μM MDA/ml and the “Anti-Chlamydia abzyme activity, 60 days, group mean” value was 1.6 μM MDA/ml. In test [3] (Table 17, anti-microbial agent only, single patients), the “Clinical condition After 15 days of treatment” value is “angina class II;; also recorded: Stable condition;”. Also, the “Score by modified Rose-Blackburn Questionnaire, 60 days after start of the treatment, group mean” value in test [3] (before: A 19.4 ± 1.79, B 20.4 ± 1.24, C 18.6 ± 0.81) worked out at 14.4 ± 1.14.

As to `CCN(CC)C(=S)S` [DDC], the “In-vitro Inhibition” value in the test with anti-Chlamydia abzymes [1] is given as “+”. Further, the “Result (inhibition of anti-Chlamydia abzymes)” value with anti-Chlamydia abzymes [1] (10 μM of each agent) is reported as “Positive”. In addition, the “Lipid oxidising activity” value with anti-Chlamydia abzymes [1] (setting [5]) is recorded as 0 μM MDA/ml.

Regarding `C[S+](C)[O-]` [DMSO], the “development of lipid oxidation reaction after treatment of Chlamydia with chaotropic agents” value (shortened to “development of lipid oxidation reaction”) in test [4] is listed as “completely abrogated”. The “Level of MDA production by 0.82 μg of lesion IgG” value (“Level of MDA production” for short) in the test on lesion IgG (+1% antioxidant, LDL 480 μg of protein, control 0.49 ± 0.023) worked out at 0 µM.

For the compound `O=C(O)CN(CCN(CC(=O)O)CC(=O)O)CCN(CC(=O)O)CC(=O)O` [DTPA], the “Result (inhibition of anti-Chlamydia abzymes)” value in the test with anti-Chlamydia abzymes [1] (10 μM of each agent) is given as “Negative”.

As to `O=[N+]([O-])OCC(CO[N+](=O)[O-])O[N+](=O)[O-]` [Glyceryl Trinitrate], the Anti-Abzyme accivity in the test on anti-Chlamydia abzymes [1] (4.4 μM, control 21.7) is listed as 0 μM MDA/ml; in the test with anti-Chlamydia abzymes [1] (22 μM, control 21.7), 0 μM MDA/ml; in the test with anti-Chlamydia abzymes [1] (44 μM, control 21.7), 0 μM MDA/ml; in the test with anti-Chlamydia abzymes [1] (220 μM, control 21.7), 0 μM MDA/ml.

In the case of `O=[N+]([O-])O[C@H]1CO[C@H]2[C@@H]1OC[C@H]2O[N+](=O)[O-]` [Isosorbide Dinitrate], the Anti-Abzyme accivity in the test on anti-Chlamydia abzymes [1] (42 μM, control 21.7) is 0 μM MDA/ml; with anti-Chlamydia abzymes [1] (211 μM, control 21.7), 0 μM MDA/ml.

On to `CCC[C@@H]1C[C@@H](C(=O)N[C@@H]([C@H]2O[C@H](SC)[C@H](O)[C@@H](O)[C@H]2O)[C@@H](C)O)N(C)C1` [Lincomycin Hydrochloride], for which the Anti-Abzyme accivity in the test with anti-Chlamydia abzymes [1] (6.5 μM, control 21.7) stood at 28.5 μM MDA/ml; in the test on anti-Chlamydia abzymes [1] (13 μM, control 21.7), 30.3 μM MDA/ml.

`[N-]=[N+]=[N-].[Na+]` [NaN1]: the “Result (inhibition of anti-Chlamydia abzymes)” value in the test on anti-Chlamydia abzymes [1] (10 μM of each agent) is given as “Positive”. Moreover, in the test on anti-Chlamydia abzymes [1] (setting [5]), the “Lipid oxidising activity” value came out at 0 μM MDA/ml.

For `CC(C)(S)[C@@H](N)C(=O)O` [Penicillamine], in the test with anti-Chlamydia abzymes [1] (10 μM of each agent), the “Result (inhibition of anti-Chlamydia abzymes)” value is given as “Positive”. The “Lipid oxidising activity” value with anti-Chlamydia abzymes [1] (setting [5]) is recorded as 0 μM MDA/ml.

Turning to `O=C(O)c1ccccn1` [Picolinic acid], the “Result (inhibition of anti-Chlamydia abzymes)” value in the test on anti-Chlamydia abzymes [1] (10 μM of each agent) is recorded as “Positive”. Further, the “Lipid oxidising activity” value in the test on anti-Chlamydia abzymes [1] (setting [5]) was 0 μM MDA/ml.

Take `CC(C)NCC(O)COc1cccc2ccccc12` (stereo not shown) [Propranolol Hydrochloride]: the Anti-Abzyme accivity with anti-Chlamydia abzymes [1] (Hydrochloride) is 21.3 μM MDA/ml and 18.3 μM MDA/ml.

In the case of `CCCCCCCCCCCCOS(=O)(=O)[O-].[Na+]` [SDS], the “lipid oxidising reaction with treated Chlamydia samples” value (from here on “lipid oxidising reaction”) in test [4] was “no lipid oxidising reaction”.

With `N.N.O=S(=O)(O)O` [ammonium sulphate], the “lipid oxidising reaction” value in test [4] is recorded as “no lipid oxidising reaction”.

As to `O=C(O)c1ccccc1` [benzoic acid], in the test on lesion IgG (pH 5.6), the “Level of MDA production” value turned out to be 0 µM.

Take `C=O` [formalin]: the “lipid oxidising reaction” value in test [4] is listed as “no lipid oxidising reaction”.

For the compound `O=C[O-].[Na+]` [sodium formate], the “Level of MDA production” value with lesion IgG (+0.1 M antioxidant, LDL 480 μg of protein, 16 h 37° C. pH 5.6, control 0.49 ± 0.023) amounted to 0 µM.

For the compound Heparin, in the test with anti-Chlamydia abzymes [1] (0.1 mg/ml, control 21.7), the Anti-Abzyme accivity came out at 19.7 μM MDA/ml.

In the case of Igepal CA-630, in test [4], the “development of lipid oxidation reaction” value is “completely abrogated” and the “oxidation of the lipids in the bacteria by the extracted abzymes after detergent treatment” value was “abolished”.

On to Nadroparin Calcium, for which the Anti-Abzyme accivity was found to be 20.5 μM MDA/ml in the test with anti-Chlamydia abzymes [1] (5 UI, control 21.7) and 12.8 μM MDA/ml in the test on anti-Chlamydia abzymes [1] (65 UI, control 21.7).

On to Triton X-100, for which, in test [4], the “development of lipid oxidation reaction” value is given as “completely abrogated” and the “oxidation of the lipids in the bacteria by the extracted abzymes after detergent treatment” value was “abolished”.
